PubChem BioAssay AID652124 (The Scripps Research Institute Molecular Screening Center, 2013)
Active and inactive are the calls of the source. No rule for the calls is given here.

Target: Perilipin-5 (Homo sapiens) + 1-acylglycerol-3-phosphate O-acyltransferase ABHD5 (Homo sapiens) (UniProt Q00G26+Q8WTS1)
Experiment: ABHD5-PLIN5 binding inhibitors, late-stage follow-up, biochemical, luminescence, dose response, round 2 (AID 652124)
Conditions: biochemical ABHD5-PLIN5 interaction

Chain of Perilipin-5 (Homo sapiens) + 1-acylglycerol-3-phosphate O-acyltransferase ABHD5 (Homo sapiens) (Q00G26 whole entry, looked up): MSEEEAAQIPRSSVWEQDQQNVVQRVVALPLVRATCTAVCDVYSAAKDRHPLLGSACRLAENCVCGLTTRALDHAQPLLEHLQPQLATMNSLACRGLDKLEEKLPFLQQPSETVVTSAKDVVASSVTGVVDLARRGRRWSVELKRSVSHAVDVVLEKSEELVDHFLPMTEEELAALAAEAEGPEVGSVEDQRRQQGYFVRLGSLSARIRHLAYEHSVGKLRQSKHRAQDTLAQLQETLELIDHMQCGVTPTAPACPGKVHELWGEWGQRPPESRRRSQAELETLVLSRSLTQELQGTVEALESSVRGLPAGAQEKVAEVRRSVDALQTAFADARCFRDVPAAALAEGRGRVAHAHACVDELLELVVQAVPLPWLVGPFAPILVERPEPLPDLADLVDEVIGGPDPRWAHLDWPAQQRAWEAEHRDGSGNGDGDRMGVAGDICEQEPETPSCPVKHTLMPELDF
Chain of Perilipin-5 (Homo sapiens) + 1-acylglycerol-3-phosphate O-acyltransferase ABHD5 (Homo sapiens) (Q8WTS1 whole entry, looked up): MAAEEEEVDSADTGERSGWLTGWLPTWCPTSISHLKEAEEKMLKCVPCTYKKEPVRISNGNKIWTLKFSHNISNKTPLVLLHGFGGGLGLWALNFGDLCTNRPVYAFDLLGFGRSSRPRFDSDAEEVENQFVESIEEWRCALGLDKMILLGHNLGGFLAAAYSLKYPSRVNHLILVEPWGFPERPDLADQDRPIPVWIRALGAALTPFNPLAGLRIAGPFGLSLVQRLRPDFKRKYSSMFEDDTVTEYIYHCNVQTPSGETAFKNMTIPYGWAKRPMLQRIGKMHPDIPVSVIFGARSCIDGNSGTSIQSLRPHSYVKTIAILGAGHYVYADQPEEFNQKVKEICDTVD

Row | SMILES | IC50
1 | O=C(Cc1ccc2c(c1)CCCC2)N1CCN(S(=O)(=O)c2ccc3c(c2)OCCO3)CC1 | inactive
2 | CN(C(=O)c1nc(S(C)(=O)=O)ncc1Cl)c1ccccc1 | 3.56 µM
3 | CN(C)CCCN(C(=O)C1CCCCC1)c1nc2cc(Br)ccc2s1 | inactive
4 | CN(C)CCCN(C(=O)C1CCCCC1)c1nc2cc(Cl)ccc2s1 | > 39.8 µM (inactive)
5 | Cc1ccc(CS(=O)(=O)c2ncc(Cl)c(C(=O)NCc3ccc4c(c3)OCO4)n2)cc1 | 3.15 µM
6 | O=C(c1nc(S(=O)(=O)Cc2ccccc2)ncc1Cl)N(Cc1ccccc1)Cc1ccco1 | 1.64 µM
7 | O=C(C1COc2ccccc2O1)N1CCN(S(=O)(=O)c2ccc3c(c2)OCCO3)CC1 (configuration not stated) | > 39.8 µM (inactive)
8 | O=C(Cc1cccc(F)c1)N1CCN(S(=O)(=O)c2ccc3c(c2)OCCO3)CC1 | > 39.8 µM (inactive)
9 | Cc1ccc(CS(=O)(=O)c2ncc(Cl)c(C(=O)N3CCN(C)CC3)n2)cc1 | 5.91 µM
10 | COc1ccc(CC(=O)N2CCN(S(=O)(=O)c3ccc4c(c3)OCCCO4)CC2)cc1 | > 39.8 µM (inactive)
11 | CCS(=O)(=O)c1ncc(Cl)c(C(=O)Nc2ccc(S(N)(=O)=O)cc2)n1 | 6.48 µM
12 | CC(NC(=O)CN1CCN(S(=O)(=O)c2ccc3c(c2)OCCCO3)CC1)c1cc2ccccc2o1 (configuration not stated) | > 39.8 µM (inactive)
13 | COc1ccc(CC(=O)N2CCCN(S(=O)(=O)c3ccc(C)cc3)CC2)cc1OC | > 39.8 µM (inactive)
14 | O=C(CCc1nc2ccccc2s1)N1CCN(S(=O)(=O)c2ccc3c(c2)OCCO3)CC1 | > 39.8 µM (inactive)
15 | Cc1ccc(CS(=O)(=O)c2ncc(Cl)c(C(=O)Nc3nnc(C(C)C)s3)n2)cc1 | > 13.3 µM (inactive)
16 | CS(=O)(=O)c1ncc(Cl)c(C(=O)Nc2ccc(C(F)(F)F)cc2)n1 | 1.45 µM
17 | O=C(CCn1cnc2ccccc21)N1CCN(S(=O)(=O)c2ccc3c(c2)OCCO3)CC1 | > 39.8 µM (inactive)
18 | CCc1ccc2c(CC(=O)N3CCN(S(=O)(=O)c4ccc5c(c4)OCCO5)CC3)coc2c1 | 3.88 µM
19 | Cc1ccc2cc(CC(=O)N3CCN(S(=O)(=O)c4ccc5c(c4)OCCO5)CC3)oc2c1 | inactive
20 | Cc1ccc2c(CC(=O)N3CCN(S(=O)(=O)c4ccc5c(c4)OCCCO5)CC3)coc2c1C | 4.72 µM

Further lines, results first:

Row | IC50 | SMILES
21 | inactive | CN(C)CCCN(C(=O)CCc1ccccc1)c1nc2ccc(Cl)cc2s1
22 | > 39.8 µM (inactive) | O=C(CCc1c[nH]c2ccccc12)N1CCN(S(=O)(=O)c2ccc3c(c2)OCCO3)CC1
23 | > 39.8 µM (inactive) | CCCC(=O)Nc1ccc2c(c1)C(=O)N(C)c1cc(C)ccc1O2
24 | 4.98 µM | CN1C(=O)c2ccccc2Sc2ccc(NC(=O)NCCc3cccs3)cc21
25 | 1.76 µM | Cc1ccc(CS(=O)(=O)c2ncc(Cl)c(C(=O)Nc3cccc(C(F)(F)F)c3)n2)cc1
26 | > 39.8 µM (inactive) | CN1C(=O)c2ccccc2Oc2ccc(NC(=O)c3cccs3)cc21
27 | inactive | CN(C)CCCN(C(=O)c1cc2ccccc2oc1=O)c1nc2ccc(Cl)cc2s1
28 | 2.95 µM | COc1ccc(CCNC(=O)c2nc(S(=O)(=O)Cc3ccc(F)cc3)ncc2Cl)cc1OC
29 | > 39.8 µM (inactive) | CCCC(=O)Nc1ccc2c(c1)C(=O)N(C)c1ccccc1O2
30 | 2.19 µM | Cc1ccc(CS(=O)(=O)c2ncc(Cl)c(C(=O)Nc3cccc4ccccc34)n2)cc1
31 | 4.24 µM | Cc1ccc(NC(=O)c2nc(S(C)(=O)=O)ncc2Cl)cc1
32 | inactive | CN(C)CCCN(C(=O)Cc1ccc(F)cc1)c1nc2ccc(Cl)cc2s1
33 | inactive | CCCNC(=O)Nc1ccc2c(c1)N(CC)C(=O)c1ccccc1S2
34 | 4.12 µM | CCCS(=O)(=O)c1ccc(Cl)c(C(=O)Nc2ccc(C(=O)OCC)cc2)c1
35 | > 39.8 µM (inactive) | CCCC(=O)N(CCCN1CCOCC1)c1nc2ccc(Cl)cc2s1
36 | > 39.8 µM (inactive) | CC(C)N1C(=O)c2ccccc2Oc2ccc(NC(=O)c3ccccc3)cc21
37 | 3.7 µM | CN1C(=O)c2ccccc2Sc2ccc(NC(=O)NCCc3ccccc3)cc21
38 | > 39.8 µM (inactive) | CCCCCNC(=O)Nc1ccc2c(c1)Sc1ccccc1C(=O)N2C
39 | > 39.8 µM (inactive) | CCCCCCNC(=O)Nc1ccc2c(c1)Sc1ccccc1C(=O)N2C
40 | inactive | CCCCCCCNC(=O)Nc1ccc2c(c1)Sc1ccccc1C(=O)N2C
41 | 3.8 µM | NS(=O)(=O)c1ccc(NC(=O)c2nc(S(=O)(=O)Cc3ccccc3)ncc2Cl)cc1
42 | > 39.8 µM (inactive) | COc1ccc(OCC(=O)Nc2ccc3c(c2)N(C(C)C)C(=O)c2ccccc2O3)cc1
43 | 2.17 µM | O=C(Nc1ccc2ccccc2c1)c1nc(S(=O)(=O)Cc2ccccc2)ncc1Cl
44 | 4.13 µM | CCS(=O)(=O)c1ncc(Cl)c(C(=O)Nc2ccc(C)cc2)n1
45 | > 39.8 µM (inactive) | CN1C(=O)c2ccccc2Oc2ccc(NC(=O)c3cc4ccccc4[nH]3)cc21
46 | 4.44 µM | CCCS(=O)(=O)c1ncc(Cl)c(C(=O)Nc2ccc(C(=O)OC)cc2)n1
47 | 1.72 µM | CN1C(=O)c2ccccc2Sc2ccc(NC(=O)NCCCc3ccccc3)cc21
